# Like-named read-outs stand apart in the source and are kept apart here.
# Key:
# [1] = target: dopamine receptors; test: Inhibition of [^3 H] spiroperidol binding
# Description: (§1) The compounds of Formula I are valuable dopaminergic agents. […] Thus, the compounds of Formula I were tested for their ability to inhibit locomotor activity in mice and rats, a measure of antipsychotic activity, according to the assay described by J. R. McLean, et al, Pharmacology, Biochemistry and Behavior, Vol. 8, pages 97-99 (1978); for their ability to bind to dopamine receptors as measured by their inhibition of [^3 H]spiroperidol binding in a receptor assay described by D. Grigoriadis and P. Seeman, Journal of Neurochemistry, Vol. 44, pages 1925-1935 (1985); and for their ability to effect dopamine synthesis in rats according to the protocol described by J. R. Walters and R. H. Roth, Naunyn-Schmiedebero's Archives of Pharmacology, Vol. 296, pages 5-14 (1976). The above test methods are incorporated herein by reference. The data in the table show the dopaminergic activity of representative compounds of Formula I.
# [2] = system: Locomotor Activity in Mice; test: Inhibition of locomotor activity in mice; format: in vivo; conditions: for ED50: Mus musculus
# Description: as §1
# [3] = system: Brain Dopamine Synthesis; test: % effects on brain dopamine synthesis in rats; format: in vivo; conditions: for change in vivo at 10 mg/kg: Rattus norvegicus
# Description: as §1
# [4] = ip, read-out: Inhibition of Locomotor Activity in Mice ED50, mice, IP (Table 1)
# [5] = ip, read-out: % Effects on Brain Dopamine Synthesis in Rats, rats, 10 mg/kg, IP (Table 1)
# [6] = ip, read-out: Inhibition of Locomotor Activity in Mice ED50, mice, IP (Table 2)
# [7] = rats, 10 mg/kg, IP (Table 1), read-out: % Effects on Brain Dopamine Synthesis in Rats
# [8] = mice, IP (Table 1), read-out: Inhibition of Locomotor Activity in Mice ED50
Compound,IC50 ([1]; Table 1),"ED50 [2, 4]",further results
"Clc1ccc(C2=C[C@H](CN3CC=C(c4ccccc4)CC3)CCC2)cc1 [Example 7a, (R)-1-[[3-(4-chlorophenyl)-2-cyclohexen-1-yl]methyl]-1,2,3,6-tetrahydro-4-phenylpyridine]",2.32 µM,7.5 mg/kg,–
"C1=C(c2ccccc2)CCN(C[C@@H]2CCC[C@@H](c3ccccc3)C2)C1.Cl [Example 20a, (1R-trans) 1,2,3,6-tetrahydro-4-phenyl-1-[(3-phenylcyclohexyl)methyl]pyridine monohydrochloride]",0.874 µM,0.5 mg/kg,–
"CN(C)c1ccc(C2=CCC[C@@H](CN3CC=C(c4ccccc4)CC3)C2)cc1 [Example 16, (R)-4-[5-[(3,6-dihydro-4-phenyl-1(2H)-pyridinyl)methyl]-1-cyclohexen-1-yl]-N,N-dimethylbenzeneamine]",0.053 µM,0.2 mg/kg,"change in vivo at 10 mg/kg [3, 5]: -76%"
"C1=C(c2ccccc2)CCN(CC2CCC=C(c3cccs3)C2)C1 (racemic) [Example 2, (±)-1,2,3,6-Tetrahydro-4-phenyl-1-[[3-(2-thienyl)-3-cyclohexen-1-yl]methyl]pyridine]",0.202 µM,1.8 mg/kg,"change in vivo at 10 mg/kg [3, 5]: -9%"
"C1=C(c2ccccc2)CCC(CN2CC=C(c3ccccc3)CC2)C1 (racemic) [B, (±)-1,2,3,6-tetrahydro-4-phenyl-1-[(4-phenyl-3-cyclohexen-1-yl)methyl]pyridine, reference compound]",–,–,"IC50 ([1]; Table 2): 1 µM; ED50 [2, 6]: 13.2 mg/kg"
"O=C(N[C@H]1CCC[C@@H](CN2CC=C(c3ccccc3)CC2)C1)c1ccccc1 [Example 19, (1S-cis)-N-[3-[(3,6-dihydro-4-phenyl-1(2H)-pyridinyl)methyl]cyclohexyl]benzamide]",0.034 µM,0.15 mg/kg,"change in vivo at 10 mg/kg [3, 5]: -95%"
"Fc1ccc(C2=CC(CN3CCN(c4ccccn4)CC3)CCC2)cc1 (racemic) [Example 5a, (±)-1-[[3-(4-Fluorophenyl)-2-cyclohexen-1-yl]methyl]-4-(2-pyridinyl)piperazine]",0.279 µM,–,"change in vivo at 10 mg/kg [3, 7]: -48%; ED50 [2, 8]: 2.2 mg/kg"
"C1=C(c2ccccc2)CC(CN2CC=C(c3cccs3)CC2)CC1.Cl (racemic) [Example 24, (±)-1,2,3,6-tetrahydro-1-[(3-phenyl-3-cyclohexen-1-yl)methyl]-4-(2-thienyl)pyridine monohydrochloride]",0.17 µM,1.5 mg/kg,–
"C1=C(c2ccccc2)CCCC1CN1CC=C(c2ccccc2)CC1 (racemic) [Example 1a, (±)-1,2,3,6-Tetrahydro-4-phenyl-1-[(3-phenyl-2-cyclohexen-1-yl)methyl]pyridine]",0.42 µM,2.5 mg/kg,"change in vivo at 10 mg/kg [3, 5]: -34%"
"Fc1ccc(C2=CCCC(CN3CC=C(c4ccccc4)CC3)C2)cc1 (racemic) [Example 3, (±)-1-[[3-(4-Fluorophenyl)-3-cyclohexen-1-yl]methyl]-1,2,3,6-tetrahydro-4-phenylpyridine]",0.09 µM,4.2 mg/kg,–
"C1=C(c2cncnc2)CCC[C@H]1CN1CC=C(c2ccccc2)CC1.Cl.Cl [Example 14a, (R)-5-[3-[(3,6-dihydro-4-phenyl-1(2H)-pyridinyl)methyl]-1-cyclohexen-1-yl]pyrimidine dihydrochloride]",–,0.07 mg/kg,–
"Cl.Clc1ccc(C2=CCC[C@@H](CN3CC=C(c4ccccc4)CC3)C2)cc1 [Example 7, (R)-1-[[3-(4-chlorophenyl)-3-cyclohexen-1-yl]methyl]-1,2,3,6-tetrahydro-4-phenylpyridine monohydrochloride]",–,4.4 mg/kg,"change in vivo at 10 mg/kg [3, 5]: -18%"
"Fc1ccc(C2=CCC[C@@H](CN3CC=C(c4ccccc4)CC3)C2)cc1 [Example 8, (R)-1-[[3-(4-fluorophenyl)-3-cyclohexen-1-yl]methyl]-1,2,3,6-tetrahydro-4-phenylpyridine]",0.076 µM,4 mg/kg,"change in vivo at 10 mg/kg [3, 5]: -74%"
"C1=C(c2ccccc2)CCN(CC2CCC=C(c3ccccc3)C2)C1 (single isomer, unassigned; (-)) [Example 6a, (-)-1,2,3,6-Tetrahydro-4-phenyl-1-[(3-phenyl-3-cyclohexen-1-yl)methyl]pyridine]",0.42 µM,–,"% Effects on Brain Dopamine Synthesis in Rats ([3]; rats, 10 mg/kg, IP (Table 1)): -34%; Inhibition of Locomotor Activity in Mice ED50 ([2]; mice, IP (Table 1)): 5.6 mg/kg"
"C1=C(c2ccccc2)CCC(CCN2CC=C(c3ccccc3)CC2)C1 (racemic) [Compound C, (±)-1,2,3,6-tetrahydro-4-phenyl-1-[2-(4-phenyl-3-cyclohexen-1-yl)ethyl]pyridine, reference compound]",–,–,"IC50 ([1]; Table 2): 8.02 µM; ED50 [2, 6]: 5.8 mg/kg"
"C1=C(c2ccccc2)C[C@H](CN2CCN(c3ccccn3)CC2)CC1 [Example 21, (R)-1-[(3-Phenyl-3-cyclohexen-1-yl)methyl]-4-(2-pyridinyl)piperazine]",0.076 µM,–,"change in vivo at 10 mg/kg [3, 7]: -27%; ED50 [2, 8]: 9.9 mg/kg"
"C1=C(c2ccccc2)CCN(C[C@@H]2CCC=C(c3cccnc3)C2)C1.Cl [Example 12, (R)-3-[5-[(3,6-dihydro-4-phenyl-1(2H)-pyridinyl)methyl]-1-cyclohexen-1-yl]pyridine monohydrochloride]",0.082 µM,0.01 mg/kg,"change in vivo at 10 mg/kg [3, 5]: -85%"
"C1=C(c2ccccc2)CC(CN2CCN(c3ncccn3)CC2)CC1 (racemic) [Example 23, (±)-2-[4-[[3-phenyl-3-cyclohexen-1-yl)methyl]-1-piperazinyl]pyrimidine]",0.354 µM,–,"ED50 [2, 8]: 8.5 mg/kg"
"C1=C(c2ccccc2)CCN(CCC2CCC=C(c3ccccc3)C2)C1 (racemic) [Compound E, (±)-1,2,3,6-tetrahydro-4-phenyl-1-[2-(3-phenyl-3-cyclohexen-1-yl)ethyl]pyridine, reference compound]",–,–,"ED50 [2, 6]: 10.9 mg/kg"
"C1=C(c2ccccc2)CCN(CC2C=C(c3cccs3)CCC2)C1 (racemic) [Example 2a, (±)-1,2,3,6-Tetrahydro-4-phenyl-1-[[3-(2-thienyl)-2-cyclohexen-1-yl]methyl]pyridine]",0.4 µM,2.3 mg/kg,–
"C1=C(c2ccccc2)CCC(CN2CCN(c3ccccn3)CC2)C1 (racemic) [Compound G, (±)-1-[(4-phenyl-3-cyclohexen-1-yl)methyl]-4-(2-pyridinyl)piperazine, reference compound]",–,–,"IC50 ([1]; Table 2): 11.2 µM; ED50 ([2]; mice, IP (Table 2), read-out: Inhibition of Locomotor Activity in Mice ED50): 25.9 mg/kg"
"C1=C(c2ccccc2)CCN(C[C@@H]2CCC=C(c3cncnc3)C2)C1.Cl [Example 14, (R)-5-[5-[(3,6-dihydro-4-phenyl-1(2H)-pyridinyl)methyl]-1-cyclohexen-1-yl]pyrimidine monohydrochloride]",0.438 µM,0.4 mg/kg,–
"C1=C(c2ccccc2)CCN(C[C@@H]2CCC=C(c3ccc4c(c3)OCO4)C2)C1.Cl [Example 18, (R)-1-[[3-(1,3-benzodioxol-5-yl)-3-cyclohexen-1-yl]methyl]-1,2,3,6-tetrahydro-4-phenylpyridine monohydrochloride]",0.432 µM,0.8 mg/kg,–
"C1=C(c2ccccc2)CCC(N2CC=C(c3ccccc3)CC2)C1 (racemic) [A, (±)-1,2,3,6-tetrahydro-4-phenyl-1-(4-phenyl-3-cyclohexen-1-yl)pyridine, reference compound]",–,–,"IC50 ([1]; Table 2): 1.08 µM; ED50 [2, 6]: 12.9 mg/kg"
"C1=C(c2cnc3ccccc3c2)CCC[C@H]1CN1CC=C(c2ccccc2)CC1 [Example 17a, (R)-3-[3-[(3,6-dihydro-4-phenyl-1(2H)-pyridinyl)methyl]-1-cyclohexen-1-yl]quinoline]",1.11 µM,1.7 mg/kg,–
"CN(C)c1ccc(C2=C[C@H](CN3CC=C(c4ccccc4)CC3)CCC2)cc1 [Example 16a, (R)-4-[3-[(3,6-dihydro-4-phenyl-1(2H)-pyridinyl)methyl]-1-cyclohexen-1-yl]-N,N-dimethylbenzeneamine]",0.66 µM,0.7 mg/kg,–
"C1=C(c2ccccc2)CC(CN2CCN(c3ccccc3)CC2)CC1.Cl.Cl (racemic) [Example 22, (±)-1-phenyl-4-[(3-phenyl-3-cyclohexen-1-yl)methyl]-piperazine dihydrochloride]",0.424 µM,–,"ED50 [2, 8]: 2.1 mg/kg"
"C1=C(c2ccccc2)CCN(C2CCC=C(c3ccccc3)C2)C1 (racemic) [D, (±)-1,2,3,6-tetrahydro-4-phenyl-1-(3-phenyl)-3-cyclohexen-1-yl)pyridine, reference compound]",–,–,"IC50 ([1]; Table 2): 9.21 µM; ED50 [2, 6]: 30 mg/kg"
"(R)-1,2,3,6-tetrahydro-1-[[3-(2-methylphenyl)-2-cyclohexen-1-yl]methyl]-4-phenylpyridine monohydrochloride compound with (R)-1,2,3,6-tetrahydro-1-[[3-(2-methylphenyl)-3-cyclohexen-1-yl]methyl]-4-phenylpyridine [Example 13]",–,–,"Inhibition of Locomotor Activity in Mice ED50 ([2]; mice, IP (Table 1)): 2.3 mg/kg"
"C1=C(c2ccsc2)CCC[C@H]1CN1CC=C(c2ccccc2)CC1 [Example 15, (R)-1,2,3,6-tetrahydro-4-phenyl-1-[[3-(3-thienyl)-2-cyclohexen-1-yl]methyl]pyridine]",0.251 µM,1.3 mg/kg,–

# Source: patent US5314896A, “1,3-substituted cycloalkenes and cycloalkanes as central nervous system agents” (priority 1992, dated 1994)
